# Experimental data reported in patent US11613531B2, “Inhibitors of RHO associated coiled-coil containing protein kinase” (Kadmon Corporation, LLC, priority 2017, dated 2023).
# Like-named read-outs stand apart in the source and are kept apart here.
# Columns and labels:
# [1] = tested on: ppMlc (T18/S19) levels in A7R5 cells; experiment: A7R5 in-cell ELISA (pMLC); format: cell-based, Rat; conditions: Rattus norvegicus, A7R5, A7R5 cells; for inhibition at 10 µM: 10 μM compound; for inhibition at 10 µM / inhibition at 1 µM: read-out: pMLC % inh A7R5 @ [conc]; for IC50: ppMlc (T18/S19); for inhibition at 1 µM: 1 μM compound
# Summary of the method: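 A7R5 rat aortic smooth muscle cells seeded 24 h, then treated 90 min with a 9-point 2-fold compound dilution series. Fixed cells probed for ppMlc (T18/S19) by colorimetric in-cell ELISA; cellular IC50 from nonlinear regression curve fit.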
# [2] = target: Recombinant ROCK2 (amino acids 1-552) (Homo sapiens (Human), UniProt O75116); experiment: Z′-Lyte kinase assay, ROCK2; format: biochemical; conditions: for inhibition at 1 µM: 1 μM compound, read-out: ROCK2 % inh. @ [conc]
# Chain of Recombinant ROCK2 (amino acids 1-552) (O75116 1-552): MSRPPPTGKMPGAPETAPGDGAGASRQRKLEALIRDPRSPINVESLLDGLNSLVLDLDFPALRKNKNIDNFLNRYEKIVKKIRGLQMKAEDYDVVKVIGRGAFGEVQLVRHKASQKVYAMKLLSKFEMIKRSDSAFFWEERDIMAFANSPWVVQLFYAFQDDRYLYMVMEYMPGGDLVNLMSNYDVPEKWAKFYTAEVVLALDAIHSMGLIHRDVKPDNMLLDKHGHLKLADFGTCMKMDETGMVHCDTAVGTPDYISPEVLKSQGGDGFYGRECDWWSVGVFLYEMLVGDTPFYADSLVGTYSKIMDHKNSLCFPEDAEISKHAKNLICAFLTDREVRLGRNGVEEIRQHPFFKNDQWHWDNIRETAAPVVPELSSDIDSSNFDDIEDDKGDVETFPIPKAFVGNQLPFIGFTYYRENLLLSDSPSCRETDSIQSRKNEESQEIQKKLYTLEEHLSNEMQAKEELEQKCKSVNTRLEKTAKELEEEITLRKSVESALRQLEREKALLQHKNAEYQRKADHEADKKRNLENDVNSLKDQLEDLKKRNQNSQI
# Method: Determination of Compound's ROCK Inhibitory Activity In Vitro (Z'Lyte Assay).
# Recombinant ROCK1 (amino acids 1-535) and ROCK2 (amino acids 1-552) proteins were purchased from ThermoFisher Scientific. Compound's activities were measured by Z′-lyte kinase kit (ThermoFisher Scientific) and IC50 was calculated
# In vitro activities for the compounds were measured with Z′-lyte kinase kit (ThermoFisher Scientific). The percent inhibition rate was calculated by normalizing the kinase activity value obtained with 1 μM compound treatment against DMSO control value and then applied to the formula, [1-(compound/DMSO)]×100%. IC50s were calculated using the nonlinear regression curve fit function of the GraphPad Prism software with kinase activities data measured with 9 points 2-fold serial dilution of compounds treatment. In cell pMLC IC50s were calculated with data obtained from A7R5 cell experiments. A7R5 cells were treated with 9 points 2-fold serial dilution of compounds and ppMlc (T18/S19) levels were determined to calculate cellular IC50 values of the compounds using the nonlinear regression curve fit function of the GraphPad Prism software. NIH3T3 cells stably expressing ACTA2-promoter-driven-luciferase were applied to measure ROCK compounds functional IC50s in cells. Cells were plated in 96 well plates to confluence and treated with 9 points serial dilution of compounds in combination with TGFβ1 for 24 hr. Luciferase activities were measured and compound's IC50s were calculated using the nonlinear regression curve fit function of the GraphPad Prism software.
# [3] = 9 points 2-fold serial dilution
IC50 [1],inhibition at 1 µM [2],IC50 [2],SMILES,inhibition at 10 µM [1],inhibition at 1 µM [1],"IC50 [2, 3]"
839 nM,97.3%,,"c1cc2[nH]ncc2cc1Nc1nc(N2CCCNCC2)nc2c1CSC2 [Example 12, 2-(1,4-diazepan-1-yl)-N-(1H-indazol-5-yl)-5,7-dihydrothieno[3,4-d]pyrimidin-4-amine]",95%,,
1490 nM,58.1%,,"Cc1nc(N2CCNC(C)C2)nc(Nc2ccc3[nH]ncc3c2)c1C (stereo not drawn) [Example 13, N-(5,6-dimethyl-2-(3-methylpiperazin-1-yl)pyrimidin-4-yl)-1H-indazol-5-amine]",51.1%,,
,33.3%,,"CCC1CN(c2nc(C)c(C)c(Nc3ccc4[nH]ncc4c3)n2)CCN1 (stereo not drawn) [Example 14, N-(2-(3-ethylpiperazin-1-yl)-5,6-dimethylpyrimidin-4-yl)-1H-indazol-5-amine]",48.9%,,
,8%,,"Cc1nc(N2CCNC(C(C)C)C2)nc(Nc2ccc3[nH]ncc3c2)c1C (stereo not drawn) [Example 15, N-(2-(3-isopropylpiperazin-1-yl)-5,6-dimethylpyrimidin-4-yl)-1H-indazol-5-amine]",26.4%,,
,4.6%,,"Cc1nc(N2CCNC(C(C)C)CC2)nc(Nc2ccc3[nH]ncc3c2)c1C (stereo not drawn) [Example 19, N-(2-(5-isopropyl-1,4-diazepan-1-yl)-5,6-dimethylpyrimidin-4-yl)-1H-indazol-5-amine]",31.8%,,
1390 nM,76.5%,,"Cc1nc(N2CCCNC(C)C2)nc(Nc2ccc3[nH]ncc3c2)c1C (stereo not drawn) [Example 22, N-(5,6-dimethyl-2-(3-methyl-1,4-diazepan-1-yl)pyrimidin-4-yl)-1H-indazol-5-amine]",54.2%,,
,29.5%,,"CCC1CCN(c2nc(C)c(C)c(Nc3ccc4[nH]ncc4c3)n2)CCN1 (stereo not drawn) [Example 23, N-(2-(5-ethyl-1,4-diazepan-1-yl)-5,6-dimethylpyrimidin-4-yl)-1H-indazol-5-amine]",46.4%,,
,52.9%,,"Cc1nc(N2CCNC(C)CC2)nc(Nc2ccc3[nH]ncc3c2)c1C (stereo not drawn) [Example 25, N-(5,6-dimethyl-2-(5-methyl-1,4-diazepan-1-yl)pyrimidin-4-yl)-1H-indazol-5-amine]",48.3%,,
,33.5%,,"CCC1CN(c2nc(C)c(C)c(Nc3ccc4[nH]ncc4c3)n2)CCCN1 (stereo not drawn) [Example 26, N-(2-(3-ethyl-1,4-diazepan-1-yl)-5,6-dimethylpyrimidin-4-yl)-1H-indazol-5-amine]",39.9%,,
,71.3%,,"Cc1nc(N2CCNCC2C)nc(Nc2ccc3[nH]ncc3c2)c1C (stereo not drawn) [Example 27, N-(5,6-dimethyl-2-(2-methylpiperazin-1-yl)pyrimidin-4-yl)-1H-indazol-5-amine]",,16.8%,
,45%,,"Cc1nc(N2CCNCC(C)C2)nc(Nc2ccc3[nH]ncc3c2)c1C (stereo not drawn) [Example 28, N-(5,6-dimethyl-2-(6-methyl-1,4-diazepan-1-yl)pyrimidin-4-yl)-1H-indazol-5-amine]",,11.8%,
1850 nM,78.1%,,"COc1cnc(N2CCNC(C)C2)nc1Nc1ccc2[nH]ncc2c1 (stereo not drawn) [Example 31, N-(5-methoxy-2-(3-methylpiperazin-1-yl)pyrimidin-4-yl)-1H-indazol-5-amine]",58%,,
3950 nM,44.6%,,"COc1cnc(N2CCCNC(C(C)C)C2)nc1Nc1ccc2[nH]ncc2c1 (stereo not drawn) [Example 32, N-(2-(3-isopropyl-1,4-diazepan-1-yl)-5-methoxypyrimidin-4-yl)-1H-indazol-5-amine]",53.7%,,
,63.1%,0.451 µM,"c1cc(Nc2ccc(-c3cn[nH]c3)cc2)nc(N2CCNCC2)n1 [Example 38, N-(4-(1H-pyrazol-4-yl)phenyl)-2-(piperazin-1-yl)pyrimidin-4-amine]",,9.2%,
,,,"c1cc(Nc2ccc(-c3cnn[nH]3)cc2)nc(N2CCNCC2)n1 [Example 41, N-(4-(1H-1,2,3-triazol-5-yl)phenyl)-2-(piperazin-1-yl)pyrimidin-4-amine]",9.96%,,> 10 µM
,72.7%,0.22 µM,"c1cc(Nc2ccc(-c3cn[nH]c3)cc2)nc(N2CCCNCC2)n1 [Example 44, N-(4-(1H-pyrazol-4-yl)phenyl)-2-(1,4-diazepan-1-yl)pyrimidin-4-amine]",,13.2%,
,33.1%,,"COc1cnc(N2CCNC(C(C)C)CC2)nc1Nc1ccc2[nH]ncc2c1 (stereo not drawn) [Example 47, N-(2-(5-isopropyl-1,4-diazepan-1-yl)-5-methoxypyrimidin-4-yl)-1H-indazol-5-amine]",45.6%,,
,50.6%,,"CCC1CN(c2ncc(OC)c(Nc3ccc4[nH]ncc4c3)n2)CCN1 (stereo not drawn) [Example 49, N-(2-(3-ethylpiperazin-1-yl)-5-methoxypyrimidin-4-yl)-1H-indazol-5-amine]",46.3%,,
,29.3%,,"COc1cnc(N2CCNC(C(C)C)C2)nc1Nc1ccc2[nH]ncc2c1 (stereo not drawn) [Example 51, N-(2-(3-isopropylpiperazin-1-yl)-5-methoxypyrimidin-4-yl)-1H-indazol-5-amine]",39.4%,,
1720 nM,74.5%,,"COc1cnc(N2CCNC(C)CC2)nc1Nc1ccc2[nH]ncc2c1 (stereo not drawn) [Example 53, N-(5-methoxy-2-(5-methyl-1,4-diazepan-1-yl)pyrimidin-4-yl)-1H-indazol-5-amine]",51.3%,,
1700 nM,58.5%,,"CCC1CCN(c2ncc(OC)c(Nc3ccc4[nH]ncc4c3)n2)CCN1 (stereo not drawn) [Example 54, N-(2-(5-ethyl-1,4-diazepan-1-yl)-5-methoxypyrimidin-4-yl)-1H-indazol-5-amine]",50.1%,,
998 nM,83.3%,,"COc1cnc(N2CCCNC(C)C2)nc1Nc1ccc2[nH]ncc2c1 (stereo not drawn) [Example 55, N-(5-methoxy-2-(3-methyl-1,4-diazepan-1-yl)pyrimidin-4-yl)-1H-indazol-5-amine]",52.2%,,
,87.1%,,"COc1cnc(N2CCNCC(C)C2)nc1Nc1ccc2[nH]ncc2c1 (stereo not drawn) [Example 56, N-(5-methoxy-2-(6-methyl-1,4-diazepan-1-yl)pyrimidin-4-yl)-1H-indazol-5-amine]",,29%,
1010 nM,,,"CC1CN(c2nccc(Nc3ccc4[nH]ncc4c3)n2)C(C)CN1 (stereo not drawn) [Example 68, N-(2-(2,5-dimethylpiperazin-1-yl)pyrimidin-4-yl)-1H-indazol-5-amine]",,35.4%,0.294 µM

SMILES,IC50 [1],inhibition at 1 µM [2],IC50 [2],inhibition at 10 µM [1],inhibition at 1 µM [1],"IC50 [2, 3]"
"COc1cnc(N2CCNCC2)nc1Nc1ccc2[nH]ncc2c1 [Example 30, N-(5-methoxy-2-(piperazin-1-yl)pyrimidin-4-yl)-1H-indazol-5-amine]",1120 nM,90.6%,,56.4%,,
"c1cc(Nc2ccc3[nH]ncc3c2)nc(N2CCNC3(CC3)C2)n1 [Example 66, N-(2-(4,7-diazaspiro[2.5]octan-7-yl)pyrimidin-4-yl)-1H-indazol-5-amine]",,86.3%,,,17.5%,0.38 µM
"c1cc(Nc2ccc3[nH]ncc3c2)nc(N2CC3CCC2CN3)n1 (stereo not drawn) [Example 67, N-(2-(2,5-diazabicyclo[2.2.2]octan-2-yl)pyrimidin-4-yl)-1H-indazol-5-amine]",1360 nM,99.2%,,,31.4%,0.045 µM
